Measurements: ChEMBL document CHEMBL4602712, “Synthesis and Evaluation of Noncovalent Naphthalene-Based KEAP1-NRF2 Inhibitors” (ACS Med Chem Lett, 2020)

target: Kelch-like ECH-associated protein 1 (Homo sapiens, UniProt Q14145); experiment: Inhibition of FITC-9mer Nrf2 peptide binding to recombinant human KEAP1 Kelch domain (321 to 609 residues) expressed in Escherichia coli BL21 (DE3) by fluorescence polarization assay
Sequence (Q14145 whole entry, the tested form may be a part): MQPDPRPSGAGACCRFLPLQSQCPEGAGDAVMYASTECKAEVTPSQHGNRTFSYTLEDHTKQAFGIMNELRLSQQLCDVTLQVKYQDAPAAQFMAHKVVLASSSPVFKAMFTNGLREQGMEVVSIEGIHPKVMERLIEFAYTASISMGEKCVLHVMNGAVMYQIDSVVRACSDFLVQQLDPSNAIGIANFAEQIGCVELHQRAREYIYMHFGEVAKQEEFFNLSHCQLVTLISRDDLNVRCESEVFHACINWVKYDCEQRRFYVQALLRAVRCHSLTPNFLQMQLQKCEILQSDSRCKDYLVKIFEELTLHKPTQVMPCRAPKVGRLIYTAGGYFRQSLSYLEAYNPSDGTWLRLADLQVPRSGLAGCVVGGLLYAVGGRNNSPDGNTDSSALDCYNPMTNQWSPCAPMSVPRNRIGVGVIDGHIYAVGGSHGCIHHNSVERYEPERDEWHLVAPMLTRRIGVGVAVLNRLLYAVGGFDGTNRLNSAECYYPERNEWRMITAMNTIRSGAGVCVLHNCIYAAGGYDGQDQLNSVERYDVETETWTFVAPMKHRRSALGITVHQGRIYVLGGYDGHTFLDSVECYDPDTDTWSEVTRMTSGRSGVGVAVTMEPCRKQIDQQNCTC

IC50, > 25 µM:
COc1ccc(S(=O)(=O)Cc2ccc(CS(=O)(=O)c3ccc(OC)cc3)c3ccccc23)cc1
COc1ccc(S(=O)(=O)Nc2ccc(/C=C/C(=O)O)c3ccccc23)cc1
COc1ccc(S(=O)(=O)Nc2ccc(CCC(=O)O)c3ccccc23)cc1
